Measured values as given in patent US11980667B2, “Short TAT oligomers for drug delivery” (The Trustees of Columbia University in the City of New York, priority 2017, dated 2024).

How the values were obtained:
[1] = Delivery of cell-penetrating peptides to the brain of healthy rats, confocal microscopy; assay type: in vivo, rat
Text: Animal preparation, IA-TCH injection, and brain tumor implantation. Animal protocols were approved by the Columbia University Institutional Animal Care and Use Committee (IACUC). Studies were primarily conducted on Sprague-Dawley rats weighing 250 to 300 grams. In the case of electron multiplying charge-coupled device imaging studies, Fisher 344 rats implanted with 9L brain tumors were utilized. The surgical preparation including anesthesia, carotid and femoral cannulation, cerebral blood flow and vital sign monitoring, as well as in vivo fluorescence imaging have been previously described in detail.
IA injections of cell-penetrating peptides (CPPs) were made during TCH as 65 μL pulses totaling 1 ml in volume. TCH was produced by a bolus injection of adenosine, esmolol, and cold saline. Animals were allowed to hemodynamically recover from TCH and euthanized 10 minutes after injection. Uptake of CPPs was assessed with a fluorescence camera and with confocal fluorescence microscopy.
Cell-penetrating peptides. Two experimental cell-penetrating peptides were tested: 1. octaarginine, also called (Arg)8 or R-8 (SEQ ID NO: 13) and 2. trans-activator of transcription or TAT (Lifetien Inc.). The 14 amino acid peptide sequence for TAT is […]COOH (SEQ ID NO: 11). Both cell-penetrating peptides (CPPs) were labeled with fluorescein so that their distribution could be identified by multispectral imaging and with fluorescence microscopy of the frozen brain sections.
Fluorescence and electron multiplying charge-coupled device imaging.

[2] = tested on: 9L glioma tumors; conditions: four arrest cycles IA-TCH; single arrest from historical controls
Description: Multiple Arrest Study. 9L glioma tumors were implanted into five rats. 14 days post-implantation, the rats were anesthetized and prepared for the injections. Blood flow reduction was achieved by bolus IV injection of adenosine and esmolol that were flushed with cold saline. Four arrest cycles were used to deliver fluorescein-conjugated TAT monomer via intra-arterial injection with a 5 minute recovery period between each arrest. Animals were sacrificed 15 minutes after injection. Brain tissues were harvested an imaged using a multi-spectral imaging system using a photon counted cooled fluorescence camera. A 470 nm light was used for excitation while a 530 nm filter was used for imaging the emitted light.

N=C(N)NCCC[C@H](NC(=O)CNC(=O)c1ccc2c(c1)C(=O)OC21c2ccc(O)cc2Oc2cc(O)ccc21)C(=O)N[C@@H](CCCCN)C(=O)N[C@@H](CCCCN)C(=O)N[C@@H](CCCNC(=N)N)C(=O)N[C@@H](CCCNC(=N)N)C(=O)N[C@@H](CCC(N)=O)C(=O)N[C@@H](CCCNC(=N)N)C(=O)N[C@@H](CCCNC(=N)N)C(=O)N[C@@H](CCCNC(=N)N)C(=O)N1CCC[C@H]1C(=O)N1CCC[C@H]1C(=O)N[C@@H](CCC(N)=O)C(=O)N[C@@H](CCC(N)=O)C(=O)O [fluorescein-labeled TAT monomer, 5-FAM-GRKKRRQRRR PPQQ-COOH]
Deposition by hemisphere ([1]; IA-TCH carotid injection, confocal microscopy): detectable deposition preferentially to the hemisphere ipsilateral to carotid injection | Parenchymal deposition versus dose ([1]; IA-TCH, dose range 0.25-1 mg): dose dependent increase | Distribution in the brain (semi-quantitative) ([1]; IA-TCH, confocal microscopy): more diffuse deposition within the white matter | Distribution in the brain ([1]; IV delivery of 0.5 mg, FIG. 17 F): diffuse uptake of TAT in and beyond the blood vessels was seen preferentially in the white matter | Deposition, multiple arrest compared to single-arrest [2]: increases the amount of TAT deposition but also increases non-specific deposition
